Among the data in ChEMBL document CHEMBL5727859, “Indole derivatives and use thereof” (2020) are IC50 values, retold here.

This assay in a line: FLIPR Assays: In vitro assays were performed in a recombinant cell line expressing cDNA encoding the alpha subunit (Nav1.7, SCN9a, PN1, NE) of human Nav1.7 (Accession No. NM_002977). The cell line was provided by investigators at Yale University (Cummins et al, J. Neurosci. 18(23): 9607-9619 (1998)). For dominant selection of the Nav1.7-expressing clones, the expression plasmid co-expressed the neomycin resistance gene. The cell line was constructed in the human embryonic kidney cell line, HEK293, under the influence of the […], and stable clones were selected using limiting dilution cloning and antibiotic selection using the neomycin analogue, G418. Recombinant beta and gamma subunits were not introduced into this cell line. Additional cell lines expressing recombinant Nav1.7 cloned from other species can also be used, alone or in combination with various beta subunits, gamma subunits or chaperones.

For orientation: IC50 means the point on the concentration scale where inhibition reaches its midpoint.

For `NC(=O)[C@H](O)[C@@H](O)c1cccc(-c2ccc3c(ccn3CC3CC3)c2)n1`, the IC50 came to 1020 µM.
